System: bacteria/yeasts cocktail indicated in table 28
Assay: Disinfection test on simulated wagon washing water with Ca(OH)2
Type: cell-based
Procedure: In order to simulate wagon washing water, a buffered kitchen salt solution was used, comprising 3% by weight of a suspension of calcium carbonate, taken from example 1.
The Ca(OH)2 was dissolved in a buffered solution of sterile phosphate at 0.85% by weight (PBS) and was mixed after 24 hours' storage at 30° C. with the bacteria/yeasts cocktail indicated in table 28.
The samples were incubated once more for 24 hours at 30° C. and then removed from the plates.
The germs which had grown were examined under an optical microscope.
A cocktail of bacteria (in PBS), firstly, and a bacteria/yeasts cocktail in (PBS), secondly, were mixed with Ca(OH)2, stored, and then removed from their moulds.
Tables 29 and 30 indicate the OH^− ion concentration (mole/l) and the yeast germ concentration (number/ml) measured in the samples, after 24-hours' incubation, for different initial concentrations of Ca(OH)2.
Samples 9 and 10 of initial Ca(OH)2 concentration equal to 1000 ppm were then removed from their mould at 30° C. on to a bacterial medium called a PCA (Plate Count Agar).
After 48 hours' incubation, the samples are once again removed from their moulds on to the same medium of type PCA.
For a part of sample 9, named 9-2, the OH^− ion concentration was reduced to a value of 5×10^−7 mole/l by the addition of gaseous CO2. […]

[Ca+2].[OH-].[OH-] [Ca(OH)2]
microbial germs (curative mode, initial Ca(OH)2 1000 ppm, after 24 hours): less than 10 number/ml | microbial germs concentration (protective mode, initial Ca(OH)2 200 ppm, after 24 hours' incubation at 30° C.): 1000 number/ml

Reference: US8889068B2, “Method for controlling microbial contamination, mineral suspensions obtained and uses thereof” (Omya International AG, priority 2005, dated 2014)
